What is called IC50 is the concentration at which inhibition is half-maximal.

SMILES strings stand for the structures.

This test has as its target T1, LATS2 (Homo sapiens, UniProt Q9NRM7).
T1 sequence (Q9NRM7 1-1088): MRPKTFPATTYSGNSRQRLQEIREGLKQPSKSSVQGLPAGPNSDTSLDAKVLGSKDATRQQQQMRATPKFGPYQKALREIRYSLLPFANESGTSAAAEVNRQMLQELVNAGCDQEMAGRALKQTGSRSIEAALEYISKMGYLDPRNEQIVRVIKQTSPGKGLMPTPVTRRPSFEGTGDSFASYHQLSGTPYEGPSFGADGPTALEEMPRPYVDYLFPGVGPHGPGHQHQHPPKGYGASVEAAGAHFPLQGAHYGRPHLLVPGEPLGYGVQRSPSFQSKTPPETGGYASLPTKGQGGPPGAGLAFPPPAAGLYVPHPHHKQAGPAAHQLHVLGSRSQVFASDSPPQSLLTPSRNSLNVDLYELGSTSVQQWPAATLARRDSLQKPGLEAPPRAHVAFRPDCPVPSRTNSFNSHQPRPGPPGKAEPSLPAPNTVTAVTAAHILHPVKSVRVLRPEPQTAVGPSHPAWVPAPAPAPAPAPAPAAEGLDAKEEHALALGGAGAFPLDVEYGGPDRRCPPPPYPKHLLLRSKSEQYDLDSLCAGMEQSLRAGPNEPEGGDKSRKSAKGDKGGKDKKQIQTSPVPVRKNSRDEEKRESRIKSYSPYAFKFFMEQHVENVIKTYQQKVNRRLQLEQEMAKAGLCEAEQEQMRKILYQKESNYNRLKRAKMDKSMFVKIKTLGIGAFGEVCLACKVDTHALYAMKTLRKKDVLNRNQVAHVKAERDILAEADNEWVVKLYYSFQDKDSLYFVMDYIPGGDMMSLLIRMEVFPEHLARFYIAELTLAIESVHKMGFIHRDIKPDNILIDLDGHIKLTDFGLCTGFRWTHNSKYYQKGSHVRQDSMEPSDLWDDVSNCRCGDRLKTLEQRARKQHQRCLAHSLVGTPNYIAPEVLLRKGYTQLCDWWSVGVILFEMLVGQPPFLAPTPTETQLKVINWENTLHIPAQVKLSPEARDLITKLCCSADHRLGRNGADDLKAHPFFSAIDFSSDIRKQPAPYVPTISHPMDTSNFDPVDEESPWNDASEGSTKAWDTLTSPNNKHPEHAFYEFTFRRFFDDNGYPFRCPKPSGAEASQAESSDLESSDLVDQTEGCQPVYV
Nature of the test: RBC HotSpot kinase assay (33P-ATP, P81 filter-binding), LATS2. It is filed as biochemical. As to conditions: Table 28, biochemical kinase assay; read-out: LATS2 IC50. In outline:
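Kinase in Hepes pH 7.5 buffer with Mg2+, EGTA, Brij35, BSA, vanadate, DTT and 1% DMSO, plus required cofactors and substrate, was preincubated 20 min at room temperature with compound. Reaction was started with 33P-ATP and run 2 h, then detected by P81 filter binding. IC50 (nM) came from 10-point singlet curves.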
Take `C[C@@H]1CNC[C@H](C)[C@@]1(O)c1ccc(-c2ccnc3[nH]cc(F)c23)cc1Cl` [Compound 1, (3S,4S,5R)-4-(2-chloro-4-(3-fluoro-1H-pyrrolo[2,3-b]pyridin-4-yl)phenyl)-3,5-dimethylpiperidin-4-ol]: the IC50 is 14.6 nM.
The result for `C[C@@H]1CNC[C@H](C)[C@@]1(O)c1ccc(-c2ccnc3[nH]cc(F)c23)cc1` [Compound 2, (3R,4s,5S)-4-(4-(3-fluoro-1H-pyrrolo[2,3-b]pyridin-4-yl)phenyl)-3,5-dimethylpiperidin-4-ol] reads 12.5 nM; that for `C[C@@H]1CNC[C@H](C)[C@@]1(O)c1ccc(-c2ccnc3[nH]cc(F)c23)cc1F` [Compound 7, (3S,4s,5R)-4-(2-fluoro-4-(3-fluoro-1H-pyrrolo[2,3-b]pyridin-4-yl)phenyl)-3,5-dimethyl piperidin-4-ol], 6.3 nM.
In the case of `C[C@@H]1CNC[C@H](C)[C@@]1(O)c1ccc(-c2ccnc3[nH]cc(F)c23)nc1` [Compound 8, (3S,4s,5R)-4-(6-(3-fluoro-1H-pyrrolo[2,3-b]pyridin-4-yl)pyridin-3-yl)-3,5-dimethylpiperidin-4-ol], the IC50 was found to be 203 nM.
The result for `Cc1cc(-c2ccnc3[nH]cc(F)c23)ccc1[C@@]1(O)[C@H](C)CNC[C@@H]1C` [Compound 9, (3S,4s,5R)-4-(4-(3-fluoro-1H-pyrrolo[2,3-b]pyridin-4-yl)-2-methylphenyl)-3,5-dimethylpiperidin-4-ol] reads 6.6 nM; that for `C[C@@H]1CNC[C@H](C)[C@@]1(O)c1c(F)cc(-c2ccnc3[nH]cc(F)c23)cc1F` [Compound 13], 7.2 nM.
Then `C[C@@H]1CNC[C@H](C)[C@@]1(O)c1ccc(-c2ccnc3[nH]cc(F)c23)cc1OC(F)(F)F` [Compound 14, (3S,4s,5R)-4-(4-(3-fluoro-1H-pyrrolo[2,3-b]pyridin-4-yl)-2-(trifluoromethoxy)phenyl)-3,5-dimethylpiperidin-4-ol], with 5.5 nM; and `C[C@@H]1CN(Cc2ccccn2)C[C@H](C)[C@@]1(O)c1c(F)cc(-c2ccnc3[nH]cc(F)c23)cc1F` [Compound 17, (3S,4s,5R)-4-(2,6-difluoro-4-(3-fluoro-1H-pyrrolo[2,3-b]pyridin-4-yl)phenyl)-3,5-dimethyl-1-(pyridin-2-ylmethyl)piperidin-4-ol], with 11.9 nM; and `C[C@@H]1CN(C)C[C@H](C)[C@@]1(O)c1cnc(-c2ccnc3[nH]cc(F)c23)cc1Cl` [Compound 22, (3S,4s,5R)-4-(4-chloro-6-(3-fluoro-1H-pyrrolo[2,3-b]pyridin-4-yl)pyridin-3-yl)-1,3,5-trimethylpiperidin-4-ol], with 4.1 nM.
Then `Cc1cc(-c2ccnc3[nH]cc(F)c23)ccc1[C@@]1(O)[C@H](C)CN(C2COC2)C[C@@H]1C` [Compound 24, (3S,4s,5R)-4-(4-(3-fluoro-1H-pyrrolo[2,3-b]pyridin-4-yl)-2-methylphenyl)-3,5-dimethyl-1-(oxetan-3-yl)piperidin-4-ol], with 5.7 nM.
Regarding `Cc1cc(-c2ccnc3[nH]cc(F)c23)ccc1[C@@]1(O)[C@H](C)CN(C(C)C)C[C@@H]1C` [Compound 29, (3S,4s, 5R)-4-(4-(3-fluoro-1H-pyrrolo[2,3-b]pyridin-4-yl)-2-methylphenyl)-1-isopropyl-3,5-dimethylpiperidin-4-ol], the IC50 worked out at 2.2 nM.
`Cc1cc(-c2ccnc3[nH]cc(F)c23)cc(F)c1C1(O)[C@H](C)CN(C2COC2)C[C@@H]1C` (stereo partly drawn) [Compound 30, (3S,5R)-4-(2-fluoro-4-(3-fluoro-1H-pyrrolo[2,3-b]pyridin-4-yl)-6-methylphenyl)-3,5-dimethyl-1-(oxetan-3-yl)piperidin-4-ol]: the IC50 came to 9 nM.
Then `C[C@@H]1CN(C2CCS(=O)(=O)CC2)C[C@H](C)C1(O)c1c(F)cc(-c2ccnc3[nH]cc(F)c23)cc1F` (stereo partly drawn) [Compound 31, 4-((3S,5R)-4-(2,6-difluoro-4-(3-fluoro-1H-pyrrolo[2,3-b]pyridin-4-yl)phenyl)-4-hydroxy-3,5-dimethylpiperidin-1-yl)tetrahydro-2H-thiopyran 1,1-dioxide], with 6.3 nM; and `C[C@@H]1CN(C)C[C@H](C)[C@@]1(O)c1ccc(-c2ccnc3[nH]cc(F)c23)cc1` [Compound 39, (3R,4s,5S)-4-(4-(3-fluoro-1H-pyrrolo[2,3-b]pyridin-4-yl)phenyl)-1,3,5-trimethylpiperidin-4-ol], with 24.7 nM; and `C[C@@H]1CN(C)C[C@H](C)[C@@]1(O)c1ccc(-c2ccnc3[nH]cc(F)c23)nc1` [Compound 41, (3R,4s,5S)-4-(6-(3-fluoro-1H-pyrrolo[2,3-b]pyridin-4-yl)pyridin-3-yl)-1,3,5-trimethylpiperidin-4-ol], with 268 nM.
The result for `C[C@@H]1CN(C2COC2)C[C@H](C)[C@@]1(O)c1c(F)cc(-c2ccnc3[nH]cc(F)c23)cc1F` [Compound 45, (3S,4s,5R)-4-(2,6-difluoro-4-(3-fluoro-1H-pyrrolo[2,3-b]pyridin-4-yl)phenyl)-3, S-dimethyl-1-(oxetan-3-yl)piperidin-4-ol] reads 9.8 nM; that for `C[C@@H]1CN(C2CCC2)C[C@H](C)[C@@]1(O)c1c(F)cc(-c2ccnc3[nH]cc(F)c23)cc1F` [Compound 46, (3R,4s,5S)-1-cyclobutyl-4-(2,6-difluoro-4-(3-fluoro-1H-pyrrolo[2,3-b]pyridin-4-yl)phenyl)-3,5-dimethylpiperidin-4-ol], 4 nM; that for `Cc1cc(-c2ccnc3[nH]cc(F)c23)ncc1[C@@]1(O)[C@H](C)CN(C2CCC2)C[C@@H]1C` [Compound 48, (3R,4s,5S)-1-cyclobutyl-4-(6-(3-fluoro-1H-pyrrolo[2,3-b]pyridin-4-yl)-4-methylpyridin-3-yl)-3,5-dimethylpiperidin-4-ol], 16.1 nM.
Then `Cc1cc(-c2ccnc3[nH]cc(F)c23)ncc1[C@@]1(O)[C@H](C)CN(C2CCS(=O)(=O)CC2)C[C@@H]1C` [Compound 51, 4-((3R,4s,5S)-4-(6-(3-fluoro-1H-pyrrolo[2,3-b]pyridin-4-yl)-4-methylpyridin-3-yl)-4-hydroxy-3,5-dimethylpiperidin-1-yl)tetrahydro-2H-thiopyran 1,1-dioxide], with 4250 nM; and `Cc1cc(-c2ccnc3[nH]cc(F)c23)ccc1[C@@]1(O)[C@H](C)CN(C2CCC2)C[C@@H]1C` [Compound 54, (3R,4s,5S)-1-cyclobutyl-4-(4-(3-fluoro-1H-pyrrolo[2,3-b]pyridin-4-yl)-2-methylphenyl)-3,5-dimethylpiperidin-4-ol], with 2.3 nM; and `Cc1cc(-c2ccnc3[nH]cc(F)c23)ccc1[C@@]1(O)[C@H](C)CN(C2CCS(=O)(=O)CC2)C[C@@H]1C` [Compound 55, 4-((3R,4s, 5S)-4-(4-(3-fluoro-1H-pyrrolo[2,3-b]pyridin-4-yl)-2-methylphenyl)-4-hydroxy-3,5S-dimethylpiperidin-1-yl)tetrahydro-2H-thiopyran 1,1-dioxide], with 12.1 nM.
For the molecule `Cc1cc(-c2ccnc3[nH]cc(F)c23)cc(F)c1[C@@]1(O)[C@H](C)CN(C2CCS(=O)(=O)CC2)C[C@@H]1C` [Compound 57, 4-((3R,4s,5S)-4-(2-fluoro-4-(3-fluoro-1H-pyrrolo[2,3-b]pyridin-4-yl)-6-methylphenyl)-4-hydroxy-3,5-dimethylpiperidin-1-yl)tetrahydro-2H-thiopyran 1,1-dioxide], the IC50 amounted to 5.3 nM.
Then `C[C@@H]1CN(C(=O)CN)C[C@H](C)[C@@]1(O)c1c(F)cc(-c2ccnc3[nH]cc(F)c23)cc1F` [Compound 58], with 11.1 nM; and `Cc1cc(-c2ccnc3[nH]cc(F)c23)ccc1[C@@]1(O)[C@H](C)CN(C(=O)CN)C[C@@H]1C` [Compound 60, 2-amino-1-((3R,4s,5S)-4-(4-(3-fluoro-1H-pyrrolo[2,3-b]pyridin-4-yl)-2-methylphenyl)-4-hydroxy-3,5-dimethylpiperidin-1-yl)ethan-1-one], with 6.7 nM; and `Cc1cc(-c2ccnc3[nH]cc(F)c23)cc(F)c1[C@@]1(O)[C@H](C)CN(C(=O)CN)C[C@@H]1C` [Compound 61, 2-amino-1-((3R,4s,5S)-4-(2-fluoro-4-(3-fluoro-1H-pyrrolo[2,3-b]pyridin-4-yl)-6-methylphenyl)-4-hydroxy-3,5-dimethylpiperidin-1-yl)ethan-1-one], with 3.2 nM.

For the origin of these results see patent US20250361230A1, “LATS Inhibitors and Uses Thereof” (The USA, as Represented by the Secretary, Dept. of Heath …, priority 2022, published 2025).
